pIC50: −log10 of the molar value.

In the assay the target is Histone deacetylase 2 (Homo sapiens) (UniProt Q92769). Briefly: Inhibition of human recombinant HDAC2.
Sequence of Histone deacetylase 2 (Homo sapiens) (Q92769 whole entry, looked up): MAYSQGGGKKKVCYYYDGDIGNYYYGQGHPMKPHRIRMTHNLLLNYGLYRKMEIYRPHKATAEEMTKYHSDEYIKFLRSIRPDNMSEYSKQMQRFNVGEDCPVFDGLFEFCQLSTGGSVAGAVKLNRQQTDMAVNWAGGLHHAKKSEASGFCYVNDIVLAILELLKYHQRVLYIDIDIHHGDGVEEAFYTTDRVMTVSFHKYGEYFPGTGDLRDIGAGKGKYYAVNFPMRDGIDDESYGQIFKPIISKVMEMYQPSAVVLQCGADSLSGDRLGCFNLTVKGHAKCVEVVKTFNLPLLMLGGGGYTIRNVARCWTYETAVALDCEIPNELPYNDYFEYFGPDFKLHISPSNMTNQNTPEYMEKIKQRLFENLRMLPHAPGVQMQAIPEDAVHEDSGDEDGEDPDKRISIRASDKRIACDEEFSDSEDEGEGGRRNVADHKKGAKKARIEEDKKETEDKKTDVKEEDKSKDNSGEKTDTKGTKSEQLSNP
For the compound `CCN1CCCC(n2c(-c3cccc(/C=C/C(=O)NO)c3)nc3ccccc32)C1` (racemic) [(+/-)-3-(3-(1-(1-ethylpiperidin-3-yl)-1H-benzo[d]imidazol-2-yl)phenyl)-N-hydroxyacrylamide], the pIC50 is 7.70.
As for `CCN(CC)CCn1c(-c2cccc(/C=C/C(=O)NO)c2)nc2ccccc21` [3-(3-(1-(2-(diethylamino)ethyl)-1H-benzo[d]imidazol-2-yl)phenyl)-N-hydroxyacrylamide], the pIC50 was 7.51.
Turning to `CC(C)N(CCn1c(-c2cccc(/C=C/C(=O)NO)c2)nc2ccccc21)C(C)C` [3-(3-(1-(2-(diisopropylamino)ethyl)-1H-benzo[d]imidazol-2-yl)phenyl)-N-hydroxyacrylamide], the pIC50 was 7.40.
As to `CN(C)CCn1c(-c2cccc(/C=C/C(=O)NO)c2)nc2ccccc21` [3-(3-(1-(2-(dimethylamino)ethyl)-1H-benzo[d]imidazol-2-yl)phenyl)-N-hydroxyacrylamide], the pIC50 is 7.20.
The result for `O=C(/C=C/c1cccc(-c2nc3ccccc3n2Cc2ccccc2)c1)NO` [3-(3-(1-benzyl-1H-benzo[d]imidazol-2-yl)phenyl)-N-hydroxyacrylamide] reads 7.30; that for `O=C(/C=C/c1cccc(-c2nc3ccccc3[nH]2)c1)NO` [3-(3-(1H-benzo[d]imidazol-2-yl)phenyl)-N-hydroxyacrylamide], 7.00; that for `Cc1nc(C)n(CCc2ccccc2)c1-c1cccc(/C=C/C(=O)NO)c1` [3-(3-(2,4-dimethyl-1-phenethyl-1H-imidazol-5-yl)phenyl)-N-hydroxyacrylamide], 7.10.
Regarding `Cc1nc(Cc2ccccc2)n(CCc2ccccc2)c1-c1cccc(/C=C/C(=O)NO)c1` [3-(3-(2-benzyl-4-methyl-1-phenethyl-1H-imidazol-5-yl)phenyl)-N-hydroxyacrylamide], the pIC50 is 7.40.
Take `Cc1nc(-c2cccc(/C=C/C(=O)NO)c2)n(CCN2CCOCC2)c1C` [3-(3-(4,5-dimethyl-1-(2-morpholinoethyl)-1H-imidazol-2-yl)phenyl)-N-hydroxyacrylamide]: the pIC50 was 7.51.
The result for `Cc1nc(-c2cccc(/C=C/C(=O)NO)c2)n(CCc2ccccc2)c1C` [3-(3-(4,5-dimethyl-1-phenethyl-1H-imidazol-2-yl)phenyl)-N-hydroxyacrylamide] reads 8.10; that for `Cc1c(Cc2ccccc2)nc(-c2cccc(/C=C/C(=O)NO)c2)n1CCN1CCOCC1` [3-(3-(4-benzyl-5-methyl-1-(2-morpholinoethyl)-1H-imidazol-2-yl)phenyl)-N-hydroxyacrylamide], 7.92.
Take `Cc1c(Cc2ccccc2)nc(-c2cccc(/C=C/C(=O)NO)c2)n1CCc1ccccc1` [3-(3-(4-benzyl-5-methyl-1-phenethyl-1H-imidazol-2-yl)phenyl)-N-hydroxyacrylamide]: the negative-log IC50 (pIC50) is 8.10.
In the case of `Cc1nc(-c2cccc(/C=C/C(=O)NO)c2)n(CCN2CCOCC2)c1Cc1ccccc1` [3-(3-(5-benzyl-4-methyl-1-(2-morpholinoethyl)-1H-imidazol-2-yl)phenyl)-N-hydroxyacrylamide], the pIC50 was 8.00.
Take `Cc1nc(-c2cccc(/C=C/C(=O)NO)c2)n(CCc2ccccc2)c1Cc1ccccc1` [3-(3-(5-benzyl-4-methyl-1-phenethyl-1H-imidazol-2-yl)phenyl)-N-hydroxyacrylamide]: the negative-log IC50 (pIC50) was 8.30.
The result for `CCN1CCC[C@@H](n2c(-c3cccc(/C=C/C(=O)NO)c3)nc3ccccc32)C1` [(R)-3-(3-(1-(1-ethylpiperidin-3-yl)-1H-benzo[d]imidazol-2-yl)phenyl)-N-hydroxyacrylamide] reads 8.00; that for `CCN1CCC[C@@H](n2c(-c3cccc(/C=C/C(=O)NO)c3)nc(C)c2C)C1` [(R)-3-(3-(1-(1-ethylpiperidin-3-yl)-4,5-dimethyl-1H-imidazol-2-yl)phenyl)-N-hydroxyacrylamide], 7.92.
In the case of `CCN1CCC[C@@H](n2c(-c3cccc(/C=C/C(=O)NO)c3)nc(C)c2-c2ccccc2)C1` [(R)-3-(3-(1-(1-ethylpiperidin-3-yl)-4-methyl-5-phenyl-1H-imidazol-2-yl)phenyl)-N-hydroxyacrylamide], the pIC50 is 8.10.
On to `CCN1CCC[C@@H](n2c(Cc3ccccc3)nc(C)c2-c2cccc(/C=C/C(=O)NO)c2)C1` [(R)-3-(3-(2-benzyl-1-(1-ethylpiperidin-3-yl)-4-methyl-1H-imidazol-5-yl)phenyl)-N-hydroxyacrylamide], for which the pIC50 was 6.92.
For `CCN1CCC[C@@H](n2c(-c3cccc(/C=C/C(=O)NO)c3)nc(Cc3ccccc3)c2C)C1` [(R)-3-(3-(4-benzyl-1-(1-ethylpiperidin-3-yl)-5-methyl-1H-imidazol-2-yl)phenyl)-N-hydroxyacrylamide] the value was 8.00; for `Cc1c(Cc2ccccc2)nc(-c2cccc(/C=C/C(=O)NO)c2)n1[C@@H]1CCCN(C)C1` [(R)-3-(3-(4-benzyl-5-methyl-1-(1-methylpiperidin-3-yl)-1H-imidazol-2-yl)phenyl)-N-hydroxyacrylamide], 8.20; for `Cc1nc(-c2cccc(/C=C/C(=O)NO)c2)n([C@@H]2CCCN(C(C)C)C2)c1-c1ccccc1` [(R)-N-hydroxy-3-(3-(1-(1-isopropylpiperidin-3-yl)-4-methyl-5-phenyl-1H-imidazol-2-yl)phenyl)acrylamide], 8.20.
Turning to `Cc1c(-c2ccccc2)nc(-c2cccc(/C=C/C(=O)NO)c2)n1[C@@H]1CCCN(C(C)C)C1` [(R)-N-hydroxy-3-(3-(1-(1-isopropylpiperidin-3-yl)-5-methyl-4-phenyl-1H-imidazol-2-yl)phenyl)acrylamide], the pIC50 is 8.30.
As for `CN1CCC[C@@H](n2c(-c3cccc(/C=C/C(=O)NO)c3)nc3ccccc32)C1` [(R)-N-hydroxy-3-(3-(1-(1-methylpiperidin-3-yl)-1H-benzo[d]imidazol-2-yl)phenyl)acrylamide], the pIC50 was 8.00.
Consider `C[C@H](c1ccccc1)n1c(-c2cccc(/C=C/C(=O)NO)c2)nc2ccccc21` [(R)-N-hydroxy-3-(3-(1-(1-phenylethyl)-1H-benzo[d]imidazol-2-yl)phenyl)acrylamide], for which the pIC50 is 7.60.
For `O=C(/C=C/c1cccc(-c2nc3ccccc3n2[C@@H]2CCCNC2)c1)NO` [(R)-N-hydroxy-3-(3-(1-(piperidin-3-yl)-1H-benzo[d]imidazol-2-yl)phenyl)acrylamide], the pIC50 is 7.92.
As for `Cc1nc(-c2cccc(/C=C/C(=O)NO)c2)n([C@@H]2CCCN(C)C2)c1-c1ccccc1` [(R)-N-hydroxy-3-(3-(4-methyl-1-(1-methylpiperidin-3-yl)-5-phenyl-1H-imidazol-2-yl)phenyl)acrylamide], the pIC50 was 8.00.
For `Cc1c(-c2ccccc2)nc(-c2cccc(/C=C/C(=O)NO)c2)n1[C@@H]1CCCN(C)C1` [(R)-N-hydroxy-3-(3-(5-methyl-1-(1-methylpiperidin-3-yl)-4-phenyl-1H-imidazol-2-yl)phenyl)acrylamide] the value was 8.30.
For the compound `CCN1CCC[C@H](n2c(-c3cccc(/C=C/C(=O)NO)c3)nc3ccccc32)C1` [(S)-3-(3-(1-(1-ethylpiperidin-3-yl)-1H-benzo[d]imidazol-2-yl)phenyl)-N-hydroxyacrylamide], the pIC50 was 7.51.
Regarding `O=C(/C=C/c1cccc(-c2nc3ccccc3n2CCN2CCCCC2)c1)NO` [N-hydroxy-3-(3-(1-(2-(piperidin-1-yl)ethyl)-1H-benzo[d]imidazol-2-yl)phenyl)acrylamide], the negative logarithm of the IC50 (pIC50) is 8.00.
The result for `O=C(/C=C/c1cccc(-c2nc3ccccc3n2CCN2CCCC2)c1)NO` [N-hydroxy-3-(3-(1-(2-(pyrrolidin-1-yl)ethyl)-1H-benzo[d]imidazol-2-yl)phenyl)acrylamide] reads 7.80; that for `O=C(/C=C/c1cccc(-c2nc3ccccc3n2CCN2CCOCC2)c1)NO` [N-hydroxy-3-(3-(1-(2-morpholinoethyl)-1H-benzo[d]imidazol-2-yl)phenyl)acrylamide], 7.30; that for `O=C(/C=C/c1cccc(-c2nc3ccccc3n2CCCc2ccccc2)c1)NO` [N-hydroxy-3-(3-(1-(3-phenylpropyl)-1H-benzo[d]imidazol-2-yl)phenyl)acrylamide], 7.92.
With `COc1ccc(-n2c(-c3cccc(/C=C/C(=O)NO)c3)nc3ccccc32)cc1` [N-hydroxy-3-(3-(1-(4-methoxyphenyl)-1H-benzo[d]imidazol-2-yl)phenyl)acrylamide], the pIC50 is 7.40.
Regarding `O=C(/C=C/c1cccc(-c2nc3ccccc3n2CC2CCNCC2)c1)NO` [N-hydroxy-3-(3-(1-(piperidin-4-ylmethyl)-1H-benzo[d]imidazol-2-yl)phenyl)acrylamide], the pIC50 was 6.80.
Regarding `CC(C)n1c(-c2cccc(/C=C/C(=O)NO)c2)nc2ccccc21` [N-hydroxy-3-(3-(1-isopropyl-1H-benzo[d]imidazol-2-yl)phenyl)acrylamide], the negative-log IC50 (pIC50) was 7.10.
In the case of `Cn1c(-c2cccc(/C=C/C(=O)NO)c2)nc2ccccc21` [N-hydroxy-3-(3-(1-methyl-1H-benzo[d]imidazol-2-yl)phenyl)acrylamide], the pIC50 is 6.92.
With `O=C(/C=C/c1cccc(-c2nc3ccccc3n2CCc2ccccc2)c1)NO` [N-hydroxy-3-(3-(1-phenethyl-1H-benzo[d]imidazol-2-yl)phenyl)acrylamide], the negative-log IC50 (pIC50) is 8.10.
As to `O=C(/C=C/c1cccc(-c2nc3ccccc3n2-c2ccccc2)c1)NO` [N-hydroxy-3-(3-(1-phenyl-1H-benzo[d]imidazol-2-yl)phenyl)acrylamide], the pIC50 is 7.20.
For the compound `Cc1nc(-c2cccc(/C=C/C(=O)NO)c2)n(CCN2CCOCC2)c1-c1ccccc1` [N-hydroxy-3-(3-(4-methyl-1-(2-morpholinoethyl)-5-phenyl-1H-imidazol-2-yl)phenyl)acrylamide], the pIC50 is 7.51.
`Cc1nc(-c2cccc(/C=C/C(=O)NO)c2)n(CCc2ccccc2)c1-c1ccccc1` [N-hydroxy-3-(3-(4-methyl-1-phenethyl-5-phenyl-1H-imidazol-2-yl)phenyl)acrylamide]: the pIC50 was 8.10.
As to `Cc1c(-c2ccccc2)nc(-c2cccc(/C=C/C(=O)NO)c2)n1CCN1CCOCC1` [N-hydroxy-3-(3-(5-methyl-1-(2-morpholinoethyl)-4-phenyl-1H-imidazol-2-yl)phenyl)acrylamide], the pIC50 was 8.00.

Values taken from BindingDB's records for doi:10.1016/j.bmcl.2010.03.092 (Takeda California, 2010).
